Values of other authors as cited in patent US20020082306A1, “Aqueous formulation of beta carotene” (Sanochemia Pharmazeutika Aktiengesellschaft, priority 1998, published 2002).

Legend:
[1] = in the presence of light and heat

CC1=C(/C=C/C(C)=C/C=C/C(C)=C/C=C/C=C(C)/C=C/C=C(C)/C=C/C2=C(C)CCCC2(C)C)C(C)(C)CCC1 [Beta-carotene, beta-carotene]
decomposition of dissolved beta-carotene by oxygen from ambient air [1]: easily decomposed | solubility in cyclohexane (cyclohexane): hardly soluble | solubility in ethanol (ethanol): hardly soluble | solubility in ether (ether): hardly soluble | solubility in water (water as well as the usually employed aqueous formulations): practically insoluble
